From ChEMBL document CHEMBL1687771 (Antimicrob Agents Chemother, 2010) come the findings set out here.

Test [1] has as its system Bacillus anthracis. Put plainly: Antimicrobial activity against Bacillus anthracis Ames infected in BALB/c mouse anthrax spore inhalation infection model assessed as decrease in tissue bacterial burden at 50 mg/kg, sc bid for 21 days administered 24 hrs post bacterial challenge measured 43 days post bacterial challenge. In kind it is functional, organism-based. Also noted: dose 50 mg/kg.

The subject of test [2] is Bacillus anthracis. The test can be described thus: Antimicrobial activity against Bacillus anthracis Ames by CLSI broth microdilution method. In kind it is functional. A general note: Dilution methods test growth across graded concentrations, often in twofold steps.
In test [3] the test system is Mus musculus. Put plainly: AUC in Bacillus anthracis Ames infected in BALB/c mouse anthrax spore inhalation infection model at 50 mg/kg, sc bid for 14 days administered 24 hrs post bacterial challenge. Type of test: functional, organism-based. Also noted: dose 50 mg/kg.
In test [4] the test system is Mus musculus. The test can be described thus: AUC at 24 hrs in Bacillus anthracis Ames infected in BALB/c mouse anthrax spore inhalation infection model at 50 mg/kg, sc bid for 14 days administered 24 hrs post bacterial challenge. Type of test: functional, organism-based. Set-up: dose 50 mg/kg.
In test [5] the test system is Bacillus anthracis. The test can be described thus: Antimicrobial activity against Bacillus anthracis Ames infected in BALB/c mouse anthrax spore inhalation infection model assessed as decrease in tissue bacterial burden at 50 mg/kg, sc bid for 14 days administered 24 hrs post bacterial challenge measured 43 days post bacterial challenge. In kind it is functional, organism-based. Also noted: dose 50 mg/kg.

Structures are written as SMILES. Converted amounts (≈) assume the structure as drawn. The source made the active and inactive calls. The rule behind the calls is not given here. Where only a bound is given, the exact number is not on record here.

`CCCCCCCCCC(=O)N[C@@H](Cc1c[nH]c2ccccc12)C(=O)N[C@H](CC(N)=O)C(=O)N[C@@H](CC(=O)O)C(=O)N[C@@H]1C(=O)NCC(=O)N[C@@H](CCCN)C(=O)N[C@@H](CC(=O)O)C(=O)N[C@H](C)C(=O)N[C@@H](CC(=O)O)C(=O)NCC(=O)N[C@H](CO)C(=O)N[C@@H]([C@H](C)CC(=O)O)C(=O)N[C@@H](CC(=O)c2ccccc2N)C(=O)O[C@@H]1C`: the result in the test on Bacillus anthracis [1] and with Bacillus anthracis [5] was Active. For the same molecule, the MIC50 with Bacillus anthracis [2] is 2 µg/mL (≈ 1.23 µM). In the test with Bacillus anthracis [2], the MIC90 turned out to be 4 µg/mL (≈ 2.47 µM). The AUC with Mus musculus [3] was over 375000 ng·h/mL; in the test on Mus musculus [4], 750000 ng·h/mL.

Broadly, the MIC50 is an inhibitory concentration at the 50% level, which refers to growth in some studies and to a panel of isolates in others. A high value points to weaker potency. The MIC90 is the lowest concentration that inhibits either 90% of growth or 90% of the strains tested, depending on the study.
